The values below come from the supplement of paper PMC6461962.

In test [1] the test system is Rhodanobacter sp. FW104-10B01. A digest of the protocol:
(§1)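 Washed cells (80 µL, final OD600 0.02) were dispensed onto 384-well dilution series of inorganic ion salts or equimolar nitrilotriacetic acid complexes. Plates kept aerobically were shaken at 700 rpm at 30 °C, anaerobic ones stayed still, and OD600 readings at 24 h (48 h for R2A strain comparisons) were scaled between water and growth-blocking antibiotic controls, ignoring wells with precipitate. IC50 values are drc R package fits of at least two biological replicate curves.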

Test [2] has as its system Pseudomonas fluorescens FW300-N2E2. A digest of the protocol: as §1
The mark [3] stands for this setting: medium / electron acceptor: 10B01 R2A/aerobic.
The mark [4] stands for this setting: medium / electron acceptor: 10B01 R2A/nitrate.
The mark [5] stands for this setting: medium / electron acceptor: N2E2 Glucose/aerobic.
Setting [6] is: medium / electron acceptor: N2E2 Glucose/aerobic 0.25xMinerals.
The mark [7] stands for this setting: medium / electron acceptor: N2E2 Glucose/aerobic (2).
Where [8] appears, read: medium / electron acceptor: N2E2 KB/aerobic.
Setting [9] is: medium / electron acceptor: N2E2 LB/aerobic.
Setting [10] is: medium / electron acceptor: N2E2 LB/aerobic (2).
Setting [11] is: medium / electron acceptor: N2E2 LB/nitrate.
Where [12] appears, read: medium / electron acceptor: N2E2 Lactate/aerobic.
[13] abbreviates: medium / electron acceptor: N2E2 R2A/aerobic.

Regarding `O.O.[Ba+2].[Cl-].[Cl-]` [Barium chloride dihydrate], the IC50 growth inhibition in test [1] (setting [3]) was above 5 mM; in test [1] (setting [4]) it was above 5 mM; in test [2] (setting [5]) it was above 5 mM; in test [2] (setting [6]) it was 3.19 mM; in test [2] (setting [7]), 2.84 mM; in test [2] (setting [8]) it was 3.22 mM. Besides, the IC50 growth inhibition in test [2] (setting [9]) is above 5 mM; in test [2] (setting [10]), above 5 mM; in test [2] (setting [11]), 4.99 mM; in test [2] (setting [12]) it was above 5 mM; in test [2] (setting [13]), above 5 mM.

As to `[Cl][Pb][Cl]` [lead (II) chloride], the IC50 growth inhibition was above 5 mM in test [1] (setting [3]); above 5 mM in test [1] (setting [4]); above 5 mM in test [2] (setting [5]); 0.0379 mM in test [2] (setting [6]); above 5 mM in test [2] (setting [7]); above 5 mM in test [2] (setting [8]). For the same molecule, the IC50 growth inhibition in test [2] (setting [9]) was above 5 mM; in test [2] (setting [10]), above 5 mM; in test [2] (setting [11]) it was above 5 mM; in test [2] (setting [12]), above 5 mM; in test [2] (setting [13]) it was 0.14 mM.

Turning to `O.O.O.O.O=S(=O)([O-])[O-].[Be+2]` [beryllium sulfate tetrahydrate], the IC50 growth inhibition in test [1] (setting [3]) is above 500 mM; in test [1] (setting [4]), above 500 mM; in test [2] (setting [5]), 1.55 mM; in test [2] (setting [6]) it was 1.55 mM; in test [2] (setting [7]), 1.55 mM; in test [2] (setting [8]), 109 mM. Besides, the IC50 growth inhibition was 1.61 mM in test [2] (setting [9]); below 0.244 mM in test [2] (setting [10]); 91.9 mM in test [2] (setting [11]); 4.8 mM in test [2] (setting [12]); above 500 mM in test [2] (setting [13]).
